This passage reports solubility results from patent US20100240711A1, “SOLID PREPARATION COMPRISING NPYY5 RECEPTOR ANTAGONIST” (SHIONOGI & CO., LTD., priority 2007, published 2010).

This data set is described as follows: Solubility of S-2367 in water (Japanese Pharmacopoeia, Dissolution Test, Second Solution). It counts as physicochemical. As to conditions: 37 °C, pH 6.8, aqueous buffer. The text has this:
A particularly preferable compound is trans-N-(5-trifluoromethylpyridin-2-yl)-4-(tertiarybutylsulfonylamino)cyclohexanecarboxamide (S-2367). The compound is a crystal under a room temperature.
The NPYY5 receptor antagonist of the present invention is not particularly limited as far as it is a drug which can be orally administered, but is preferably a drug having low solubility in water, so-called poorly water-soluble drug.

In brackets after ≈: the same amount, converted by molar mass.

Turning to `CC(C)(C)S(=O)(=O)N[C@H]1CC[C@H](C(=O)Nc2ccc(C(F)(F)F)cn2)CC1` [Example S-2367, trans-N-(5-trifluoromethylpyridin-2-yl)-4-(tertiarybutylsulfonylamino)cyclohexanecarboxamide], the solubility (as a rule, the concentration that dissolves in the medium under given conditions) was approximately 3.5 µg/mL (≈ 8.59 µM).
